Experimental data published in ChEMBL document CHEMBL4616635, “Investigations of antiproliferative and antioxidant activity of β-lactam morpholino-1,3,5-triazine hybrids” (Bioorg Med Chem, 2020).
Values after ≈ are worked out from the molar mass of the structure shown.

Tests used:
[1] = system: HEK293; test: Cytotoxicity against human HEK293 cells assessed as inhibition of cell growth after overnight incubation by MTT assay; format: cell-based
[2] = Antioxidant activity assessed as DPPH radical scavenging activity measured for 5 mins by UV absorbance analysis; format: functional
[3] = system: HepG2; test: Antiproliferative activity against human HepG2 cells assessed as inhibition of cell growth after overnight incubation by MTT assay; format: functional, cell-based
[4] = system: SW 1116; test: Antiproliferative activity against human SW1116 cells assessed as inhibition of cell growth after overnight incubation by MTT assay; format: functional, cell-based
[5] = system: MCF7; test: Antiproliferative activity against human MCF7 cells assessed as inhibition of cell growth after overnight incubation by MTT assay; format: functional, cell-based
[6] = system: Calf thymus DNA; test: Binding affinity to calf thymus DNA assessed as hypochromism by measuring red shift in absorption spectra at 68 uM after 2 mins by UV-vis spectroscopy; format: nucleic-acid assay; settings: Bos taurus
[7] = system: Calf thymus DNA; test: Binding affinity to calf thymus DNA assessed as binding constant at 68 uM after 2 mins by UV-vis spectroscopy; format: nucleic-acid assay; settings: Bos taurus
[8] = system: Calf thymus DNA; test: Binding affinity to calf thymus DNA assessed as hyperchromism by measuring blue shift in absorption spectra at 40 uM after 2 mins by UV-vis spectroscopy; format: nucleic-acid assay; settings: Bos taurus
[9] = system: Calf thymus DNA; test: Binding affinity to calf thymus DNA assessed as binding constant at 40 uM after 2 mins by UV-vis spectroscopy; format: nucleic-acid assay; settings: Bos taurus
[10] = system: Calf thymus DNA; test: Binding affinity to calf thymus DNA assessed as hypochromism by measuring red shift in absorption spectra at 40 uM after 2 mins by UV-vis spectroscopy; format: nucleic-acid assay; settings: Bos taurus

| SMILES | IC50 [2] | IC50 [3] | IC50 [5] | Activity [6] | Kb [7] | Activity [8] | Kb [9] | Activity [10] | IC50 [1] | IC50 [4] |
| --- | --- | --- | --- | --- | --- | --- | --- | --- | --- | --- |
| O=C1[C@@H](Oc2ccc(Cl)cc2)[C@@H](c2ccc(Oc3nc(N4CCOCC4)nc(N4CCOCC4)n3)cc2)N1c1ccc(Nc2nc(N3CCOCC3)nc(N3CCOCC3)n2)cc1 | > 10000 µg/mL | > 100 µM | > 100 µM |  |  |  |  |  | > 100 µM | > 100 µM |
| O=[N+]([O-])c1cccc(/C=N/c2ccc(Nc3nc(N4CCOCC4)nc(N4CCOCC4)n3)cc2)c1 | 445 µg/mL (≈ 0.907 mM) | > 100 µM | > 100 µM |  |  |  |  |  | > 100 µM | 15.1 µM |
| COc1ccc(N2C(=O)C3(c4ccccc4Oc4ccccc43)C2c2ccc(Oc3nc(N4CCOCC4)nc(N4CCOCC4)n3)cc2)cc1 (configuration not stated) | > 10000 µg/mL | > 100 µM | > 100 µM |  |  |  |  |  | > 100 µM | 38.4 µM |
| COc1ccc(/N=C/c2ccc(Oc3nc(N4CCOCC4)nc(N4CCOCC4)n3)cc2)cc1 | 195 µg/mL (≈ 0.409 mM) | > 100 µM | > 100 µM |  |  |  |  |  | > 100 µM | > 100 µM |
| CCOc1ccc(/N=C/c2ccc(Oc3nc(N4CCOCC4)nc(N4CCOCC4)n3)cc2)cc1 | 50 µg/mL (≈ 0.102 mM) | > 100 µM | > 100 µM |  |  |  |  |  | > 100 µM | > 100 µM |
| O=[N+]([O-])c1ccc(/C=N/c2ccc(Nc3nc(N4CCOCC4)nc(N4CCOCC4)n3)cc2)cc1 | 195 µg/mL (≈ 0.398 mM) | > 100 µM | > 100 µM | -4 nm | 1.08 ×10⁵ /M |  |  |  | > 100 µM | 3.32 µM |
| O=C1N(c2ccc(Nc3nc(N4CCOCC4)nc(N4CCOCC4)n3)cc2)C(c2ccc(Cl)cc2)C12c1ccccc1Oc1ccccc12 (configuration not stated) | > 10000 µg/mL | > 100 µM | > 100 µM |  |  | -2 nm | 0.935 ×10⁵ /M |  | > 100 µM | 2.06 µM |
| O=C1[C@@H](Oc2ccccc2)[C@@H](c2ccc(Cl)cc2)N1c1ccc(Nc2nc(N3CCOCC3)nc(N3CCOCC3)n2)cc1 (relative stereo) | 4800 µg/mL (≈ 7.82 mM) | > 100 µM | > 100 µM |  |  |  |  |  | > 100 µM | > 100 µM |
| O=C1[C@@H](Oc2ccccc2)[C@@H](c2cccc([N+](=O)[O-])c2)N1c1ccc(Nc2nc(N3CCOCC3)nc(N3CCOCC3)n2)cc1 (relative stereo) | > 10000 µg/mL | > 100 µM | > 100 µM |  |  | -2 nm | 0.943 ×10⁴ /M |  | > 100 µM | 1.98 µM |
| O=C1[C@@H](Oc2ccc(Cl)cc2Cl)[C@@H](c2ccc([N+](=O)[O-])cc2)N1c1ccc(Nc2nc(N3CCOCC3)nc(N3CCOCC3)n2)cc1 (relative stereo) | 5800 µg/mL (≈ 8.36 mM) | > 100 µM | > 100 µM |  |  |  |  |  | > 100 µM | 35.7 µM |
| O=C1[C@@H](Oc2ccc(Cl)cc2Cl)[C@@H](c2ccc(Oc3nc(N4CCOCC4)nc(N4CCOCC4)n3)cc2)N1c1ccc(Nc2nc(N3CCOCC3)nc(N3CCOCC3)n2)cc1 (relative stereo) | > 10000 µg/mL | > 100 µM | > 100 µM |  |  |  |  |  | > 100 µM | > 100 µM |
| COc1ccc(N2C(=O)[C@@H](Oc3ccc(Cl)cc3)[C@H]2c2ccc(Oc3nc(N4CCOCC4)nc(N4CCOCC4)n3)cc2)cc1 (relative stereo) | 6200 µg/mL (≈ 9.61 mM) | > 100 µM | > 100 µM |  |  |  |  |  | > 100 µM | 30 µM |
| O=C1[C@@H](Oc2ccc(Cl)cc2)[C@@H](c2ccc([N+](=O)[O-])cc2)N1c1ccc(Nc2nc(N3CCOCC3)nc(N3CCOCC3)n2)cc1 (relative stereo) | > 10000 µg/mL | > 100 µM | > 100 µM |  |  |  | 2.6 ×10⁵ /M | -5 nm | > 100 µM | 4.88 µM |
| O=C1[C@@H](Oc2ccccc2)[C@@H](c2ccc([N+](=O)[O-])cc2)N1c1ccc(Nc2nc(N3CCOCC3)nc(N3CCOCC3)n2)cc1 (relative stereo) | > 10000 µg/mL | > 100 µM | > 100 µM |  |  |  |  |  | > 100 µM | 17.5 µM |
| O=C1[C@@H](Oc2ccc(Cl)cc2)[C@@H](c2ccc(Cl)cc2)N1c1ccc(Nc2nc(N3CCOCC3)nc(N3CCOCC3)n2)cc1 (relative stereo) | > 10000 µg/mL | > 100 µM | > 100 µM |  |  |  |  |  | > 100 µM | > 100 µM |
| O=C1[C@@H](Oc2ccc(Cl)cc2Cl)[C@@H](c2ccc(Cl)cc2)N1c1ccc(Nc2nc(N3CCOCC3)nc(N3CCOCC3)n2)cc1 (relative stereo) | > 10000 µg/mL | > 100 µM | > 100 µM |  |  |  |  |  | > 100 µM | 86.2 µM |

Further lines, with some results ahead:

| IC50 [2] | IC50 [3] | IC50 [5] | Activity [6] | Kb [7] | Activity [8] | Kb [9] | Activity [10] | SMILES | IC50 [1] | IC50 [4] |
| --- | --- | --- | --- | --- | --- | --- | --- | --- | --- | --- |
| > 10000 µg/mL | > 100 µM | > 100 µM |  |  |  |  |  | C(=N\c1ccc(Nc2nc(N3CCOCC3)nc(N3CCOCC3)n2)cc1)/c1ccc(Oc2nc(N3CCOCC3)nc(N3CCOCC3)n2)cc1 | > 100 µM | > 100 µM |
| 275 µg/mL (≈ 0.573 mM) | > 100 µM | > 100 µM |  |  |  |  |  | Clc1ccc(/C=N/c2ccc(Nc3nc(N4CCOCC4)nc(N4CCOCC4)n3)cc2)cc1 | > 100 µM | 93.4 µM |
| > 10000 µg/mL | > 100 µM | > 100 µM |  |  |  |  |  | COc1ccc(N2C(=O)[C@@H](Oc3ccccc3)[C@H]2c2ccc(Oc3nc(N4CCOCC4)nc(N4CCOCC4)n3)cc2)cc1 | > 100 µM | > 100 µM |
| > 10000 µg/mL | > 100 µM | > 100 µM |  |  |  |  |  | O=C1N(c2ccc(Nc3nc(N4CCOCC4)nc(N4CCOCC4)n3)cc2)C(c2ccc([N+](=O)[O-])cc2)C12c1ccccc1Oc1ccccc12 (configuration not stated) | > 100 µM | > 100 µM |
| 30 µg/mL (≈ 0.0613 mM) | > 100 µM | > 100 µM |  |  |  |  |  | CN(C)c1ccc(/N=C/c2ccc(Oc3nc(N4CCOCC4)nc(N4CCOCC4)n3)cc2)cc1 | > 100 µM | 15.6 µM |
| > 10000 µg/mL | > 100 µM | > 100 µM |  |  |  |  |  | O=C1N(c2ccc(Nc3nc(N4CCOCC4)nc(N4CCOCC4)n3)cc2)C(c2cccc([N+](=O)[O-])c2)C12c1ccccc1Oc1ccccc12 (configuration not stated) | > 100 µM | > 100 µM |
| > 10000 µg/mL | > 100 µM | > 100 µM |  |  |  |  |  | O=C1[C@@H](Oc2ccccc2)[C@@H](c2ccc(Oc3nc(N4CCOCC4)nc(N4CCOCC4)n3)cc2)N1c1ccc(Nc2nc(N3CCOCC3)nc(N3CCOCC3)n2)cc1 (relative stereo) | > 100 µM | > 100 µM |
| > 10000 µg/mL | > 100 µM | > 100 µM |  |  |  |  |  | CCOc1ccc(N2C(=O)[C@@H](Oc3ccc(Cl)cc3)[C@H]2c2ccc(Oc3nc(N4CCOCC4)nc(N4CCOCC4)n3)cc2)cc1 (relative stereo) | > 100 µM | 1.53 µM |
| > 10000 µg/mL | > 100 µM | > 100 µM |  |  |  |  |  | O=C1[C@@H](Oc2ccc(Cl)cc2Cl)[C@@H](c2cccc([N+](=O)[O-])c2)N1c1ccc(Nc2nc(N3CCOCC3)nc(N3CCOCC3)n2)cc1 (relative stereo) | > 100 µM | > 100 µM |
| 5900 µg/mL (≈ 9.44 mM) | > 100 µM | > 100 µM |  |  |  |  |  | CCOc1ccc(N2C(=O)[C@@H](Oc3ccccc3)[C@H]2c2ccc(Oc3nc(N4CCOCC4)nc(N4CCOCC4)n3)cc2)cc1 (relative stereo) | > 100 µM | > 100 µM |
| 9600 µg/mL (≈ 14.1 mM) | > 100 µM | > 100 µM |  |  |  |  |  | COc1ccc(N2C(=O)[C@@H](Oc3ccc(Cl)cc3Cl)[C@H]2c2ccc(Oc3nc(N4CCOCC4)nc(N4CCOCC4)n3)cc2)cc1 (relative stereo) | > 100 µM | 2.7 µM |
| > 10000 µg/mL | > 100 µM | > 100 µM |  |  |  |  |  | O=C1[C@@H](Oc2ccc(Cl)cc2)[C@@H](c2cccc([N+](=O)[O-])c2)N1c1ccc(Nc2nc(N3CCOCC3)nc(N3CCOCC3)n2)cc1 (relative stereo) | > 100 µM | 100 µM |
| 195 µg/mL (≈ 1.11 mM) |  |  |  |  |  |  |  | O=C1O[C@H]([C@@H](O)CO)C(O)=C1O [ASCORBIC ACID] |  |  |
|  | 7.3 µM |  |  |  |  |  |  | COc1cccc2c1C(=O)c1c(O)c3c(c(O)c1C2=O)C[C@@](O)(C(=O)CO)C[C@@H]3O[C@H]1C[C@H](N)[C@H](O)[C@H](C)O1 [DOXORUBICIN] | 6.1 µM | 6.9 µM |
